Results published in patent publication US5360907A, “Pyrrolo[3,2-B]pyridinylalkyl benzamide derivatives” (G.D. Searle & Co., priority 1993, dated 1994).

Target: T1, PAF receptor (Homo sapiens, UniProt P25105)
T1 construct: human platelet membrane preparation; tissue Lifesource, Inc. (Glenview, Ill.); host or cells: human packed platelets (membrane preparation)
Assay: Assay A: Human Platelet Receptor Binding (inhibition of specific [^3 H]PAF binding to human platelet membrane preparation)
Conditions: 0.75 nM [^3 H]PAF, human platelet membranes, 30 minutes at 24° C.
Experimental: Compounds of the invention were evaluated for their ability to inhibit specific binding of [^3 H]PAF to human platelet membrane preparation. Human packed platelets were obtained from Lifesource, Inc. (Glenview, Ill.) and washed 3 times with 10 mM Trizma pH 7.0, 2 mM EDTA (dipotassium salt), 150 mM KCl and then once with 10 mM Trizma 7.4, 20 mM CaCl2. The platelets were broken by freezing in a dry ice-ethanol bath, followed by thawing in 24° C. water baths. The preparation was centrifuged (40,000×g, 20 minutes, 4'C) and the pellet suspended in 10 mM Trizma 7.4, 20 mM CaCl2, 5 mg/ml human albumin. Protein concentration in the platelet membrane preparation was determined by the Lowry method [O. H. Lowry et al., J. Biol. Chem., 193, 265-275 (1951)]. Aliquots of the membrane preparation were stored at -70° C. Each preparation was characterized for PAF receptor number and dissociation constant (Kd). In binding assays 5 μl of test compound, solubilized in DMSO, was added to polypropylene tubes along with 0.75 nM [^3 H]PAF and 200 mcl [0.075 nM] of membranes and 95 μl 10 mM Trizma 7.4, 20 mM CaCl2, 5 mg/ml human albumin. Tubes were incubated for 30 minutes at 24° C. The incubation was terminated by adding 4 ml of ice-cold 10 mM Trizma pH 7.4, 20 mM CaCl2 and 20 mg/ml BSA prior to vacuum filtration using Whatman GF/C filters. Filters were prepared and counted for a scintillation counter. All DPM values were corrected for background and isotope decay. Triplicate determinations for single doses were averaged. The amount of non-specific binding was subtracted from all dose averages, giving an amount of specific binding in all cases. The IC50 values for the compounds of the invention were determined by the Allfit program using percent displacement data. (Allfit is a `basic` computer program for simultaneous curve fitting of a family of signoidal dose-response curves using the four parameter logistic equation.) Results are shown in Table I.

T1 sequence (P25105 whole entry): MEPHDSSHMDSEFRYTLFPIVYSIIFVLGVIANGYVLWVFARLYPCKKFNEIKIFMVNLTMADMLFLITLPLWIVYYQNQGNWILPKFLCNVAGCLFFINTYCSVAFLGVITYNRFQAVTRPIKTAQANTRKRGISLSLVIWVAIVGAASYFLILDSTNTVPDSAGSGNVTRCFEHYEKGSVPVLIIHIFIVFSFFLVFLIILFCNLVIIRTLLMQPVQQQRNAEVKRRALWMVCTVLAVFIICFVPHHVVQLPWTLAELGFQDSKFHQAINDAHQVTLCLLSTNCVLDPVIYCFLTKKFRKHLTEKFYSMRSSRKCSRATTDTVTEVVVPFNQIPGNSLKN

IC50	SMILES
15 nM	COc1cc(Cn2ccc3ncccc32)ccc1C(=O)N(C1CCCC1)C1CC(C)CC(C)C1 (stereo not shown) [Example 5, N-cyclopentyl-N-(3,5-dimethylcyclohexyl)-2-methoxy-4-(1H-pyrrolo[3,2-b]pyridin-1-ylmethyl)benzamide]
2 nM	COc1cc(Cn2ccc3ncccc32)ccc1C(=O)N(C(C)C)C1CCCCC1 [Example 3, N-cyclohexyl-2-methoxy-N-(1-methylethyl)-4-(1H-pyrrolo[3,2-b]pyridin-1-ylmethyl)benzamide]
7 nM	COc1cc(Cn2ccc3ncccc32)ccc1C(=O)N(C1CCCCC1)C1CCC1 [Example 4, N-cyclobutyl-N-cyclohexyl-2-methoxy-4-(1H-pyrrolo[3,2-b]pyridin-1-ylmethyl)benzamide]
8 nM	CC(C)N(C(=O)c1ccc(Cn2ccc3ncccc32)c(Br)c1)C1CCCCC1 [Example 7, 3-bromo-N-cyclohexyl-N-(1-methylethyl)-4-(1H-pyrrolo[3,2-b]pyridin-1-ylmethyl)benzamide]
39 nM	Cc1cc(C(=O)N(C2CCCCC2)C2CCCC2)ccc1Cn1ccc2ncccc21 [Example 6, N-cyclohexyl-N-cyclopentyl-3-methyl-4-(1H-pyrrolo[3,2-b]pyridin-1-ylmethyl)benzamide]
38 nM	COc1cc(C(=O)N(C(C)C)C2CCCCC2)ccc1Cn1ccc2ncccc21 [Example 1, N-cyclohexyl-3-methoxy-N-(1-methylethyl)-4-(1H-pyrrolo[3,2-b]pyridin-1-ylmethyl)benzamide]

Test system: human platelets
Assay: Assay B: Human Platelet Aggregation Inhibition (PAF-induced aggregation in human platelet-rich plasma)
Assay type: cell-based
Conditions: 37°
Experimental: Compounds of the invention were evaluated for their ability to inhibit PAF-induced aggregation of human platelets in a human-platelet-rich plasma. Venous blood was collected from donors who fasted for 8 hours and were instructed not to use antiinflammatory drugs for 2 weeks prior to the blood draw. Blood was collected into syringes containing 0.1 ml of 3.8% [w/v] citrate and centrifuged in polypropylene tubes at 150 xg for 20 minutes at room temperature. The platelet rich plasma [PRP] was collected and let sit for 20 minutes at room temperature. Platelet activating factor [PAF] was diluted in 0.9% NaCl with 0.25% bovine serum albumin. Silicon treated cuvettes with stir bars were placed in the 37° heating block of the platelet aggregometer [Bio/Data Corporation, Platelet Aggregation Profiler, Model PAP-4]. PRP and test compound were added to cuvettes and aggregation monitored for 10-15 seconds at 37° with stirring. PAF was added and aggregation monitored for an additional 3 minutes. Peak aggregation was considered the peak of the first aggregation wave, usually 45-60 seconds after PAF addition. Inhibition of aggregation was determined by the following: 1-[(% aggregation in the presence of compound).div.(% maximal aggregation)]. A log/logit transformation was used to determine half maximal inhibitory concentration of a test compound [IC50 ].

IC50	SMILES
2 nM	COc1cc(C(=O)N(C(C)C)C2CCCCC2)ccc1Cn1ccc2ncccc21 [Example 1, N-cyclohexyl-3-methoxy-N-(1-methylethyl)-4-(1H-pyrrolo[3,2-b]pyridin-1-ylmethyl)benzamide]
